From patent publication US12590277B2, “High-throughput acoustofluidic fabrication of cell spheroids” (The Trustees of Indiana University, priority 2019, dated 2026)

Legend:
Panc02 cells = assay: MTT cytotoxicity assay, Panc02 monolayer culture; type: cell-based, murine
Method: (§1) The cytotoxic effect of the chemotherapeutic drug Gemcitabine (LC Laboratories, Woburn, Mass., USA) on Panc02 cell spheroids culture was compared to the cytotoxic effect on monolayer culture. For the cytotoxic assay, 1×10^4 cells suspended in complete medium were seeded in each well of a 96-well plate. Four (4)-day-old Panc02 spheroids were transferred to a new 96 ultra-low attachment well plate. The next day, the cells and spheroids were treated with different concentrations of Gemcitabine solution (0, 0.1, 1, 10, 25, 50, 100 μM) in sextuplicate wells. After incubating the cells with Gemcitabine for 48 h, 20 microliter (μl) of 3-(4,5-dimethylthiazol-2-yl)-2,5-diphenyltetrazolium bromide (MTT) solution (5 mg/ml) was added into each well, and the cells were incubated for 4 hours. […] Finally, absorbance was recorded at 570 nm using the Epoch™ microplate spectrophotometer (Bio-Tek Instruments, USA). […]
(§2) Parallel experiments were set with traditional 2D monolayer cell cultures to examine differential response of 2D and 3D cell cultures. Cell number and viability were measured using MTT assay after 2 days of Gemcitabine treatment. The IC50 value was calculated. […]

Panc02 cell spheroids = assay: MTT cytotoxicity assay, Panc02 cell spheroids culture; type: cell-based, murine
Method: as §1, §2

SMILES: Nc1ccn([C@@H]2O[C@H](CO)[C@@H](O)C2(F)F)c(=O)n1 [Gemcitabine]
- response to the drug from regression curves, monolayer (Panc02 cells; 0-100 μM Gemcitabine, 48 h): dose-dependent response
- IC50 (Panc02 cells; Mus musculus, Panc02, 2D monolayer culture, 48 h (2 days) Gemcitabine treatment): 9.99 ± 0.07 µM
- response to the drug from regression curves, spheroids (Panc02 cell spheroids; 0-100 μM Gemcitabine, 48 h): dose-dependent response
- IC50 (Panc02 cell spheroids; Mus musculus, 4-day-old acoustically assembled Panc02 3D spheroids, 48 h (2 days) Gemcitabine treatment): 18.38 ± 0.09 µM
